Here are results for 2 compounds from patent US11925643B2, “Toll-like receptor 4 (TLR4) inhibitors and use thereof” (MOR RESEARCH APPLICATIONS LTD., priority 2018, dated 2024).

Residues, ends and D or L forms follow the SMILES beside them.

One experiment relates to TNF-α mRNA. Nature of the experiment: TNF-α mRNA in mouse myocardium by RT-qPCR after ischemia. Type of experiment: in vivo, mice. The note with it: 0.3 mg/kg 1 hour after MI induction. The method, then: Real-time RT-PCR experiments were performed in duplicates on an ABI 7900 instrument (Applied Biosystems™) using Taqman™ Master Mix (Applied Biosystems™). The average threshold cycles (Ct) of the duplicates were used to calculate the relative expression levels of the following genes: TLR4 (Applied Biosystems™ assay primer ID: Mm00569848_m1 Tlr4), TLR2 (assay primer ID: Mm01769726_m1 Tlr2), TNF-α (assay primer ID: Mm00443260_g1 Tnf) and IL-1β (assay primer ID: Mm00434228_m1 II1b) in vitro and in vivo following hypoxia or ischemia, respectively. The reference gene was TBP and the primer used was derived from mouse TATA-box binding protein (Applied Biosystems™ assay primer ID: Mm00446973_m1 Tbp). Amounts of TLR2, TLR4, TNF-α and IL-1β mRNAs in each sample were calculated relative to TBP mRNA, based on the corresponding Cts, as Relative Quantity (RQ) values, and normalized taking as 1 a randomly selected sample of the control group (TBP mRNA). […]
Real time reverse transcriptase PCR (RT-qPCR) was conducted to identify the effect of a disclosed decoy peptide on TLR-mediated induction of the inflammatory cytokine TNF-α. The effect of an exemplary decoy peptide PM6 (0.3 mg/kg; administered 1 hour after MI induction) on TNF-α mRNA expression in mice myocardium was assessed 24 h and 7 days after ischemia induction.
(In general: Quantitative PCR measures a nucleic acid by following its amplification.)

The target in another experiment is T1, TLR4 (Homo sapiens, UniProt O00206).
T1 construct: FACS analysis to test the expression of TLR4 protein by macrophages under LPS treatment; endogenous in cells; host or cells: human peripheral-blood monocytes differentiated into macrophages with M-CSF
T1 sequence (O00206 24-839): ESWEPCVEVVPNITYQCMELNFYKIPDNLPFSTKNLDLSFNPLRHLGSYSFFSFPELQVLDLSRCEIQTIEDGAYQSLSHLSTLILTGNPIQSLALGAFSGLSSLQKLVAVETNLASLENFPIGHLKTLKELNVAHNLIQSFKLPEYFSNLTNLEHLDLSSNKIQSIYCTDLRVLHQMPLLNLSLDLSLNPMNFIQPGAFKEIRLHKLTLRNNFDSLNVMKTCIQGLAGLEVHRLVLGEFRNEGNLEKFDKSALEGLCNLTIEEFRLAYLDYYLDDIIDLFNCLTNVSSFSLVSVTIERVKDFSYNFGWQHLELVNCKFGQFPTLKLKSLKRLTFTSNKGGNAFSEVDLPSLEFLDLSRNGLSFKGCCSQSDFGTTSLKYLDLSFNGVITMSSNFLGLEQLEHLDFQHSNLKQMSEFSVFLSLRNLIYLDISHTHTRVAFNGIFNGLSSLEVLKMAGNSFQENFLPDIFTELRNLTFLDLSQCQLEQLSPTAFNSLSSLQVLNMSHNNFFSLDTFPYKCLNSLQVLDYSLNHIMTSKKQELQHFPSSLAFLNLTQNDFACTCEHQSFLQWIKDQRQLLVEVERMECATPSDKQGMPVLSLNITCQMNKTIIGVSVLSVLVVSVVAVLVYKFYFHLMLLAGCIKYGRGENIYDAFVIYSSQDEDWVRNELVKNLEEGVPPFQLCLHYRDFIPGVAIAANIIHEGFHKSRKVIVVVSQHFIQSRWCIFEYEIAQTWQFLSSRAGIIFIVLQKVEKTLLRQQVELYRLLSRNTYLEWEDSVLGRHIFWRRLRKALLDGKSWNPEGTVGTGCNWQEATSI
Nature of the experiment: FACS analysis of TLR4 expressed by macrophages exposed to LPS. Type of experiment: cell-based. The note with it: 10 μM. The method, then: Flow cytometry is an analytical cell-biology technique that utilizes light to count and profile cells in a heterogenous fluid mixture. Flow cytometry analysis was used to evaluate binding of antibodies to TLR4 presenting cells. In this assay, an anti-TLR4 antibody was added to a monocytes suspension and cells which bound the antibody were visualized by a fluorescently labeled secondary antibody that bound to the anti-TLR4 antibody (Ab). Accordingly, samples were first “labeled” with the anti-TLR4 antibody, then incubated with Fluor® 488 conjugated to a secondary Ab for TLR4 (CD284) positive cells visualization.
In order to confirm the specificity of binding, and further in order to correct for non-specific or background staining, isotypes control mouse IgGs were added to cell suspensions at the same concentration as the anti-TLR4 Abs. To deduct the non-specific or background staining from the positive staining due to direct Ab binding to the antigen, the level of background staining was assessed by the use of the same fluorochrome as that used for staining the anti-TLR4 Ab.
Peripheral blood (30 ml) was obtained for the isolation of monocytes. Monocytes were purified by density gradient centrifugation as described above, and/or by adherence to plastic in RPMI 1640 medium supplemented with 10% fetal bovine serum (FBS) and antibiotics. Peripheral blood mononuclear cells (PBMCs) (10^6 cells/ml) were first seeded into 24-well plates (0.5 ml per well), after 2 hours, non-adherent cells were removed by several washes with warm PBS.
Monocytes freshly isolated either by density gradient centrifugation by adherence differentiated into macrophages in complete RPMI 1640 medium supplemented with human recombinant macrophage colony stimulating factor (100 ng/ml) for 6 days. To confirm macrophage cell lineage, direct immunostaining was performed with an antibody directed against CD11b/mac1 (Biolegend® Inc., San Diego, Calif., USA). Eighty percent (80%) of positive staining was observed by flow cytometry analysis. The proportion of TLR4 in this separated cell fraction was examined by FACS analysis using, as isotype control, mouse IgG2a IsoControl (eBioscience™ #53-4724-80), and mouse anti-human CD284 Alexa Fluor® 488 Clone FITA125 secondary Ab (Isotype IgG2a. eBioscience™ #53-9917-41), which recognizes the human TLR4 (also known as CD284) cell surface antigen. Cells were analyzed in a BC Gallios Flow Cytometer (Beckman Coulter, Indianapolis Ind., USA) and were initially gated on the basis of forward and side scatter characteristics. Kaluza Software was used to analyze the results. Results are expressed as mean fluorescence intensity (MFI) and also as normalized to control. […]
(In general: A flow cytometer gives signals particle by particle.)

Take `CCCCCCCCNc1nc(=O)n(Cc2ccccc2)cc1C` [PM6, 1-benzyl-5-methyl-4-(octylamino)pyrimidin-2(1H)-one]: the “TNF-α mRNA level in myocardium” value in the experiment with TNF-α mRNA (24 h) and with TNF-α mRNA (7 days) was “significant reduction” each time.

For `CC[C@H](C)[C@H](NC(C)=O)C(=O)N[C@H](C(=O)N[C@@H](Cc1ccccc1)C(=O)N[C@@H](C)C(N)=O)C(C)C` [SEQ ID NO:1, (2S,3S)-2-acetamido-N-((S)-1-(((S)-1-(((S)-1-amino-1-oxopropan-2-yl)amino)-1-oxo-3-phenylpropan-2-yl)amino)-3-methyl-1-oxobutan-2-yl)-3-methylpentanamide] (Ac-IVFA-NH2), the TLR4 expression level entry on TLR4 (30 min before LPS (100 ng/ml or 20 μg/ml), 4 hours) was “toward baseline levels”. Further, the “lowering the expression of TLR4 in the presence of LPS, compared with SEQ ID NO: 25” value at TLR4 (low and high LPS) was “more effective”.
